Test results published in PubChem BioAssay (NCI).
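GI50 marks 50% less growth. TGI is the concentration that stops growth completely.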

What was measured:
Assay in all cases: growth of human tumour cells (NCI), 384-well format
A498 renal = test system: A498 renal
CAKI-1 renal = test system: CAKI-1 renal
COLO 205 colon = test system: COLO 205 colon
DU-145 prostate = test system: DU-145 prostate
HCT-15 colon = test system: HCT-15 colon
HT29 colon = test system: HT29 colon
MCF7 breast = test system: MCF7 breast
NCI-H322M lung = test system: NCI-H322M lung
OVCAR-8 ovarian = test system: OVCAR-8 ovarian
SK-MEL-28 melanoma = test system: SK-MEL-28 melanoma
SN12C renal = test system: SN12C renal
SR leukemia = test system: SR leukemia
UO-31 renal = test system: UO-31 renal

Q: `[2H]c1nc(C)nc([2H])c1-c1cc(NC[C@@H](C)c2cccc3c(C(=O)NC)ccnc23)ncn1` was tested. Which GI50 (A498 renal) did it give?
A: > 100 µM

Q: What about the TGI (A498 renal) of the same molecule?
A: > 100 µM

Q: What about the GI50 (CAKI-1 renal) of the same molecule?
A: > 100 µM

Q: And the TGI (CAKI-1 renal)?
A: > 100 µM

Q: What about the GI50 (COLO 205 colon) of the same molecule?
A: > 100 µM

Q: And the TGI (COLO 205 colon)?
A: > 100 µM

Q: What about the GI50 (DU-145 prostate) of the same molecule?
A: > 100 µM

Q: And the TGI (DU-145 prostate)?
A: > 100 µM

Q: What about the GI50 (HCT-15 colon) of the same molecule?
A: > 100 µM

Q: And the TGI (HCT-15 colon)?
A: > 100 µM

Q: What about the GI50 (HT29 colon) of the same molecule?
A: > 100 µM

Q: And the TGI (HT29 colon)?
A: > 100 µM

Q: What about the GI50 (MCF7 breast) of the same molecule?
A: > 100 µM

Q: What about the TGI (MCF7 breast) of the same molecule?
A: > 100 µM

Q: And the GI50 (NCI-H322M lung)?
A: > 100 µM

Q: What about the TGI (NCI-H322M lung) of the same molecule?
A: > 100 µM

Q: And the GI50 (OVCAR-8 ovarian)?
A: > 100 µM

Q: What about the TGI (OVCAR-8 ovarian) of the same molecule?
A: > 100 µM

Q: And the GI50 (SK-MEL-28 melanoma)?
A: > 100 µM

Q: What about the TGI (SK-MEL-28 melanoma) of the same molecule?
A: > 100 µM

Q: And the GI50 (SN12C renal)?
A: > 100 µM

Q: And the TGI (SN12C renal)?
A: > 100 µM

Q: What about the GI50 (SR leukemia) of the same molecule?
A: 18.9 µM

Q: What about the TGI (SR leukemia) of the same molecule?
A: 50.3 µM

Q: And the GI50 (UO-31 renal)?
A: > 100 µM

Q: And the TGI (UO-31 renal)?
A: > 100 µM

Q: `CC(C)N(CCCNC(=O)Nc1ccc(C(C)(C)C)cc1)C[C@H]1O[C@@H](n2ccc3c(N)ncnc32)[C@H](O)[C@@H]1O` was tested. Which GI50 (A498 renal) did it give?
A: > 100 µM

Q: What about the TGI (A498 renal) of the same molecule?
A: > 100 µM

Q: And the GI50 (CAKI-1 renal)?
A: > 100 µM

Q: And the TGI (CAKI-1 renal)?
A: > 100 µM

Q: And the GI50 (COLO 205 colon)?
A: > 100 µM

Q: And the TGI (COLO 205 colon)?
A: > 100 µM

Q: What about the GI50 (DU-145 prostate) of the same molecule?
A: > 100 µM

Q: And the TGI (DU-145 prostate)?
A: > 100 µM

Q: And the GI50 (HCT-15 colon)?
A: > 100 µM

Q: And the TGI (HCT-15 colon)?
A: > 100 µM

Q: And the GI50 (HT29 colon)?
A: > 87.2 µM

Q: What about the TGI (HT29 colon) of the same molecule?
A: > 100 µM

Q: And the GI50 (MCF7 breast)?
A: > 100 µM

Q: And the TGI (MCF7 breast)?
A: > 100 µM

Q: And the GI50 (NCI-H322M lung)?
A: > 100 µM

Q: And the TGI (NCI-H322M lung)?
A: > 100 µM

Q: And the GI50 (OVCAR-8 ovarian)?
A: > 100 µM

Q: And the TGI (OVCAR-8 ovarian)?
A: > 100 µM

Q: And the GI50 (SK-MEL-28 melanoma)?
A: > 100 µM

Q: And the TGI (SK-MEL-28 melanoma)?
A: > 100 µM

Q: What about the GI50 (SN12C renal) of the same molecule?
A: > 100 µM

Q: And the TGI (SN12C renal)?
A: > 100 µM

Q: What about the GI50 (SR leukemia) of the same molecule?
A: > 100 µM

Q: What about the TGI (SR leukemia) of the same molecule?
A: > 100 µM

Q: What about the GI50 (UO-31 renal) of the same molecule?
A: > 100 µM

Q: What about the TGI (UO-31 renal) of the same molecule?
A: > 100 µM
